According to the RepoRT retention time repository (doi:10.1007/s00216-021-03828-0):
Counter-ions that a name gives are not always drawn.

Tests used:
Conditions in all cases: stereoisomer not certain
[1] = RP, Merck Supelco Ascentis Express C18, 100 × 2.1 mm, 2 µm, 40 °C, 0.4 mL/min, estimated dead time 0.55 min; A: water + 0.1% formic acid, pH 3; B: acetonitrile + 0.1% formic acid, pH 3; gradient (min/%B) 0/5 2/5 17/99.9 20/99.9
[2] = RP, Merck Supelco Ascentis Express C18, 100 × 2.1 mm, 2 µm, 39 °C, 0.3 mL/min, estimated dead time 0.73 min; A: water + 0.1% formic acid, pH 3; B: acetonitrile + 0.1% formic acid, pH 3; gradient (min/%B) 0/5 2/5 17/99.9 20/99.9
[3] = RP, Merck Supelco Ascentis Express C18, 100 × 2.1 mm, 2 µm, 40 °C, 0.2 mL/min, estimated dead time 1.1 min; A: water + 0.1% formic acid, pH 3; B: acetonitrile + 0.1% formic acid, pH 3; gradient (min/%B) 0/5 2/5 17/99.9 20/99.9
[4] = RP, Merck Supelco Ascentis Express C18, 100 × 2.1 mm, 2 µm, 40 °C, 0.35 mL/min, estimated dead time 0.63 min; A: water + 0.1% formic acid, pH 3; B: acetonitrile + 0.1% formic acid, pH 3; gradient (min/%B) 0/5 2/5 17/99.9 20/99.9
[5] = RP, Merck Supelco Ascentis Express C18, 100 × 2.1 mm, 2 µm, 40 °C, 0.2 mL/min, estimated dead time 1.1 min; A: water + 0.1% formic acid, pH 3; B: acetonitrile + 0.1% formic acid, pH 3; gradient (min/%B) 0/5 2/5 17/99.9 20/99.9; remark: listed apart in the source
[6] = RP, Merck Supelco Ascentis Express C18, 100 × 2.1 mm, 2 µm, 40 °C, 0.4 mL/min, estimated dead time 0.55 min; A: water + 0.1% formic acid, pH 3; B: acetonitrile + 0.1% formic acid, pH 3; gradient (min/%B) 0/5 2/5 17/99.9 20/99.9; remark: listed apart in the source
[7] = RP, Merck Supelco Ascentis Express C18, 100 × 2.1 mm, 2 µm, 40 °C, 0.25 mL/min, estimated dead time 0.88 min; A: water + 0.1% formic acid, pH 3; B: acetonitrile + 0.1% formic acid, pH 3; gradient (min/%B) 0/5 2/5 17/99.9 20/99.9

SMILES	LC retention time [1]	LC retention time [2]	LC retention time [3]	LC retention time [4]	LC retention time [5]	LC retention time [6]	LC retention time [7]
CC(=O)C1CCC2C3CC=C4CC(OS(=O)(=O)O)CCC4(C)C3CCC12C (centres undefined) [PREGNENOLONE SULFATE]	8.55 min	9.19 min	10.1 min	8.79 min	9.94 min	8.55 min	9.46 min
CC(=O)Oc1cccc(O)c1 [RESORCINOL MONOACETATE]	5.17 min	5.94 min	7.01 min	5.5 min	7 min	5.14 min	6.34 min
Cc1cc2nc3c(=O)[nH]c(=O)nc-3n(CC(O)C(O)C(O)CO)c2cc1C (centres undefined) [RIBOFLAVIN]	4.24 min	4.65 min	5.39 min	4.41 min	5.38 min	4.23 min	4.94 min
O=C(C=Cc1ccc(O)c(O)c1)OC(Cc1ccc(O)c(O)c1)C(=O)O (centres undefined) [ROSMARINATE]	5.62 min	6.1 min	6.9 min	5.82 min	6.88 min	5.6 min	6.41 min
CCCCCCSCC(NC(=O)CCC(N)C(=O)O)C(=O)NCC(=O)O (centres undefined) [S-HEXYL-GLUTATHIONE]	5.87 min	6.32 min	7.13 min	6.06 min	7.14 min	5.85 min	6.66 min
NC(=O)c1ccccc1O [SALICYLAMIDE]	4.05 min	4.72 min	5.82 min	4.34 min	5.82 min	4.02 min	5.19 min
O=C(O)c1ccccc1[O-] [SALICYLATE]	3.62 min	4.28 min	5.3 min	3.9 min	5.31 min	3.59 min	4.72 min
O=C(O)CCCCCCCCC(=O)O [SEBACATE]	6.39 min	6.92 min	7.81 min	6.59 min	7.79 min	6.34 min	7.27 min
O=C([O-])CCCCCCC(=O)[O-] [SUBERATE]	4.62 min	5.22 min	6.08 min	4.87 min	6.08 min	4.59 min	5.55 min
Cn1c(=O)c2[nH]cnc2n(C)c1=O [THEOPHYLLINE]	2.16 min	2.81 min	3.98 min	2.47 min	3.96 min	2.15 min	3.32 min
CSc1ncnc2nc[nH]c12 [THIOPURINE S-METHYLETHER]	3.37 min	3.94 min	4.85 min	3.61 min	4.85 min	3.33 min	4.33 min
Cc1cn(C2CC(O)C(CO)O2)c(=O)[nH]c1=O (centres undefined) [THYMIDINE]	1.05 min	1.36 min	2.06 min	1.19 min	2.09 min	1.04 min	1.64 min
Cc1c[nH]c(=O)[nH]c1=O [THYMINE]	0.783 min	1.05 min	1.59 min	0.903 min	1.6 min	0.8 min	1.27 min
NC(Cc1cc(I)c(Oc2cc(I)c(O)c(I)c2)c(I)c1)C(=O)O (centres undefined) [THYROXINE]	7.69 min	8.11 min	8.88 min	7.87 min	8.87 min	7.65 min	8.44 min
O=C(O)/C=C/c1ccccc1 [TRANS-CINNAMATE]	6.59 min	7.27 min	8.31 min	6.86 min	8.28 min	6.54 min	7.67 min
O=c1[nH]c(=O)c2ncn(C3OC(CO)C(O)C3O)c2[nH]1 (centres undefined) [XANTHOSINE]	0.81 min	1.05 min	1.62 min	0.923 min	1.65 min	0.81 min	1.29 min
O=C(O)c1cc(=O)c2cccc(O)c2[nH]1 [XANTHURENATE]	2.28 min	3.33 min	4.17 min	2.57 min	4.15 min	2.29 min	3.61 min
